The source of these data is paper PMC9866752 (Life, 2023).

In general, EC50 refers to the concentration that produces a half-maximal response. A word on the stoichiometry N: it is the number of molecules, sites or subunits per partner or assembly.

For data set [1], the target named is T1, human Frataxin (FXN) (Homo sapiens, UniProt Q16595).
T1 construct: D91-A210, N-terminal 6xHis-GST tag cut with thrombin; E. coli BL21; 15N-labelled
T1 sequence (Q16595 91-210): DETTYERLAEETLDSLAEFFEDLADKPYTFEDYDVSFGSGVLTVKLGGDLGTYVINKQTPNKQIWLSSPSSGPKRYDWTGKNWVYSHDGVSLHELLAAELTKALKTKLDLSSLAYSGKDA
Nature of the data set: NMR 1H-15N SOFAST-HMQC titration, chemical shift perturbation, Hill fit. Format: binding.

Data set [2] deals with the molecule itself. Nature of the data set: SEC; Sd200/16/600 gel filtration column, last step of the purification; buffer with 50 mM MOPS-Tris pH 8.0, 100 mM KCl, 1% sodium cholate, 10% glycerol, 100 uM TCEP.

As to `C=CC1=C(C)c2cc3[nH]c(cc4nc(cc5[nH]c(cc1n2)c(C)c5CCC(=O)O)C(CCC(=O)O)=C4C)c(C)c3C=C` [Protoporphyrin IX], in data set [1], the EC50 amounted to 140 µM.

B1: human ferrochelatase (residues R65 to L423) (enzyme, UniProt P22830 65-423, looked up)
chain: RKPKTGILMLNMGGPETLGDVHDFLLRLFLDRDLMTLPIQNKLAPFIAKRRTPKIQEQYRRIGGGSPIKIWTSKQGEGMVKLLDELSPNTAPHKYYIGFRYVHPLTEEAIEEMERDGLERAIAFTQYPQYSCSTTGSSLNAIYRYYNQVGRKPTMKWSTIDRWPTHHLLIQCFADHILKELDHFPLEKRSEVVILFSAHSLPMSVVNRGDPYPQEVSATVQKVMERLEYCNPYRLVWQSKVGPMPWLGPQTDESIKGLCERGRKNILLVPIAFTSDHIETLYELDIEYSQVLAKECGVENIRRAESLNGNPLFSKALADLVHSHIQSNELCSKQLTLSCPLCVNPVCRETKSFFTSQQL
notes: ferrochelatase, human, residues R65 to L423; Eluted as a homodimer (88 kDa); The tag is inferred; no cleavage is described; also called FCH; FECH; source: recombinant expression from pET28a in Luria-Bertani media, purified (cobalt HisTrap, gel filtration)
Take B1: the “stoichiometry N” value in data set [2] stood at 2.
